Common to all, as to test: Radiometric protein kinase assay (33PanQinase), Assay Condition A (thiol containing)
Assay type in all cases: biochemical

In test [1] the target is CDK2/CycA2 (Homo sapiens (Human), UniProt P24941). Particulars: thiol containing (1.2 mM DTT), ATP 0.3 μM. On the procedure: (§1) The IC50 profile of test compounds was determined using three protein kinases.
(§2) The compounds were provided as pre-weighed powders in vials. The compounds were dissolved to 1×10^−02M by adding DMSO. 100 μl of each of the resulting stock solutions were transferred into column 2 of four 96 well “master plates”.
(§3) Prior to testing, the 1×10^−02M stock solutions in column 2 of the master plates were subjected to a serial, semi-logarithmic dilution using 100% DMSO as a solvent. […] Column 1 and 7 were filled with 100% DMSO as controls. Subsequently, 2×10 μl from each well of the serial diluted copy plates were aliquoted with a 96 channel pipettor into two identical sets of “compound dilution plates”.
(§4) In the process, 90 μl H2O were added to each well of a set of compound dilution plates. To minimize potential precipitation, the H2O was added to each plate only a few minutes before the transfer of the compound solutions into the assay plates. Each plate was shaken thoroughly, resulting in a “compound dilution plate/10% DMSO”.
(§5) For the assays, 5 μl solution from each well of the compound dilution plates/10% DMSO were transferred into the assay plates. The final volume of the assay was 50 μl. All compounds were tested at 10 final assay concentrations in the range from 1×10^−04M to 3×10^−09M, in singlicate. The final DMSO concentration in the reaction cocktails was 1% in all cases.
(§6) All protein kinases were expressed in Sf9 insect cells or in E. coli as recombinant GST-fusion proteins or His-tagged proteins, either as full-length or enzymatically active fragments. All kinases were produced from human cDNAs and purified by either GSH-affinity chromatography or immobilized metal. Affinity tags were removed from a number of kinases during purification. The purity of the protein kinases was examined by SDS-PAGE/Coomassie staining, the identity was checked by mass spectroscopy.
(§7) A radiometric protein kinase assay (^33PanQinase® Activity Assay) was used for measuring the kinase activity of the three protein kinases. All kinase assays were performed in 96-well FlashPlates™ from PerkinElmer (Boston, Mass., USA) in a 50 μl reaction volume. The reaction cocktail was pipetted in four steps in the following order: • 20 μl of assay buffer (standard buffer) • 5 μl of ATP solution (in H2O) • 5 μl of test compound (in 10% DMSO) • 20 μl enzyme/substrate mix
(§8) The reaction cocktails were incubated at 30° C. for 60 minutes. The reaction was stopped with 50 μl of 2% (v/v) H3PO4, plates were aspirated and washed two times with 200 μl 0.9% (w/v) NaCl. Incorporation of ^33Pi was determined with a microplate scintillation counter (Microbeta, Wallac). All assays were performed with a BeckmanCoulter/SAGIAN™ Core System.
(§9) The median value of the counts in column 1 (n=8) of each assay plate was defined as “low control”. This value reflects unspecific binding of radioactivity to the plate in the absence of a protein kinase but in the presence of the substrate. The median value of the counts in column 7 of each assay plate (n=8) was taken as the “high control”, i.e. full activity in the absence of any inhibitor. The difference between high and low control was taken as 100% activity.
(§10) As part of the data evaluation the low control value from a particular plate was subtracted from the high control value as well as from all 80 “compound values” of the corresponding plate. The residual activity (in %) for each well of a particular plate was calculated by using the following formula: Res. Activity (%)=100×[(cpm of compound−low control)/(high control−low control)]
(§11) The residual activities for each concentration and the compound IC50 values were calculated using Quattro Workflow V3.1.1 (Quattro Research GmbH, Munich, Germany). […] The fitting method used was a least-squares fit.

For test [2], the target named is CDK12 wt/CycK (Homo sapiens (Human), UniProt Q9NYV4). Particulars: thiol containing (1.2 mM DTT), ATP 0.3 μM. How it is done:
as §1, §2, §3, §4, §5, §6, §7, §8, §9, §10, §11

In test [3] the target is CDK7/CycH/MAT1 (Homo sapiens (Human), UniProt P50613). As to conditions: thiol containing (1.2 mM DTT), ATP 3.0 μM. On the procedure:
as §1, §2, §3, §4, §5, §6, §7, §8, §9, §10, §11

The record followed here is patent publication US11447493B2 (Kinnate Biopharma Inc., priority 2018, dated 2022).

A value given as a limit tells only on which side of the number the result lay.

A word on the IC50: it is the concentration that inhibits the measured activity by half.

Sequence of CDK12 wt/CycK (Q9NYV4 whole entry): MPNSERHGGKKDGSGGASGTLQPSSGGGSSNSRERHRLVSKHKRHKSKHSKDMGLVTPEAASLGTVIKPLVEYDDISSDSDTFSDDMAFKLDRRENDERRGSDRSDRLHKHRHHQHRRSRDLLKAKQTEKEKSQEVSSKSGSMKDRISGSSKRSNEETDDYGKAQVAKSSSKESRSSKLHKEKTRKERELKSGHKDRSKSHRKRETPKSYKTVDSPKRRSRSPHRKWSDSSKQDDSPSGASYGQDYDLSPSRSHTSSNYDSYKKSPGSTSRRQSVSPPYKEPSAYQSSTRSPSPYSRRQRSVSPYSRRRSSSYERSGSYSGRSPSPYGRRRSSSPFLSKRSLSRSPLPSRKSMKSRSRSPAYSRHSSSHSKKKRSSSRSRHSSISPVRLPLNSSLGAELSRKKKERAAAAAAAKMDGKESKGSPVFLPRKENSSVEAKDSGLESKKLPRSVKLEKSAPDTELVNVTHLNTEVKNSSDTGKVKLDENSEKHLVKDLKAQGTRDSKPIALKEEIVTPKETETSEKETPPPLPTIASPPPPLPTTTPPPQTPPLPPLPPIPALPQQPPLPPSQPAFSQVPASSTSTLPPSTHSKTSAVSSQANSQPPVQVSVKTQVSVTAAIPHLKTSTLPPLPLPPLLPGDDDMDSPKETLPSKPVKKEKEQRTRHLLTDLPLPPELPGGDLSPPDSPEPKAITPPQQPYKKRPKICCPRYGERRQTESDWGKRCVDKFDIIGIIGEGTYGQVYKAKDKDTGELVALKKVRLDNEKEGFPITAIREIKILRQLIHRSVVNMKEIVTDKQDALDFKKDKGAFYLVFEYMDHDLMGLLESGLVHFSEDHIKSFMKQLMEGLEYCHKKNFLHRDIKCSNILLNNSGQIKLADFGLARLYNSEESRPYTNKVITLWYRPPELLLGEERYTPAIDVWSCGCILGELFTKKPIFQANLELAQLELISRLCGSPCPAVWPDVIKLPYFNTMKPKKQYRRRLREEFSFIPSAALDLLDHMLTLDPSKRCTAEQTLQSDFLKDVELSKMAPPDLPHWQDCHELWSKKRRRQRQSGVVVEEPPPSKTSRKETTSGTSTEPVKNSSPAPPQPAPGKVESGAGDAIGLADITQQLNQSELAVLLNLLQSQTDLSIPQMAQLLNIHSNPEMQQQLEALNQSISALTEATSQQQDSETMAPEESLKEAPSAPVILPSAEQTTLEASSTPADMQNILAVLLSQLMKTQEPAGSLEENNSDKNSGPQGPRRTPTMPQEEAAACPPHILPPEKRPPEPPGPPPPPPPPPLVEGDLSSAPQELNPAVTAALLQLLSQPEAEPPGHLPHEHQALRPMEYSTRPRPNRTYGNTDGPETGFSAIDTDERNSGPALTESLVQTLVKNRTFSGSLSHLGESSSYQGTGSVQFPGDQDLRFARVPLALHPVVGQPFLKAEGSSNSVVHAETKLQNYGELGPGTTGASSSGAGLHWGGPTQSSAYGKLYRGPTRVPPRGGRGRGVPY
Sequence of CDK12 wt/CycK (O75909 whole entry partner): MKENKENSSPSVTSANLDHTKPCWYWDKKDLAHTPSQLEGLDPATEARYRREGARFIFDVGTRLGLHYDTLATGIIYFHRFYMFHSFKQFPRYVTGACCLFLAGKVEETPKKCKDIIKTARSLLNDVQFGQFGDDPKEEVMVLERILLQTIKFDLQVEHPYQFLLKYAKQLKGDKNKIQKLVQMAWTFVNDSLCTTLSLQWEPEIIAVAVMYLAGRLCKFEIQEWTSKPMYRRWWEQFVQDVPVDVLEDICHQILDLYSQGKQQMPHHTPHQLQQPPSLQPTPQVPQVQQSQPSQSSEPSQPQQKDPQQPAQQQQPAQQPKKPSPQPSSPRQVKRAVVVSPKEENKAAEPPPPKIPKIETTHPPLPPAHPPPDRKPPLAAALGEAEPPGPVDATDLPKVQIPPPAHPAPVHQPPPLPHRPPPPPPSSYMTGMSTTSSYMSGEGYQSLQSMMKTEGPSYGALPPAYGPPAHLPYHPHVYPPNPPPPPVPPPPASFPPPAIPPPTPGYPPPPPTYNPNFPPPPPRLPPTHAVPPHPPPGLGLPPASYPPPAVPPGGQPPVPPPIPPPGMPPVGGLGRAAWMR
Sequence of CDK7/CycH/MAT1 (P50613 whole entry): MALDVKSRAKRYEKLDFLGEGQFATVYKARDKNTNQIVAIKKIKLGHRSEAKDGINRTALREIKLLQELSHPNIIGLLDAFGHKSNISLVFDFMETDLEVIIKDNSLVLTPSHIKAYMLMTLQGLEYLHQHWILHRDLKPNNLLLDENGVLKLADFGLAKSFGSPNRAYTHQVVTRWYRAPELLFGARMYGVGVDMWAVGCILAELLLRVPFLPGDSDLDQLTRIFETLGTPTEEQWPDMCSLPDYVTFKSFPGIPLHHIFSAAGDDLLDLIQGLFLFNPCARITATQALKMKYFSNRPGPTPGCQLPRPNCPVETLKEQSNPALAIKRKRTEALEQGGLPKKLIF
Sequence of CDK7/CycH/MAT1 (P51946 whole entry partner): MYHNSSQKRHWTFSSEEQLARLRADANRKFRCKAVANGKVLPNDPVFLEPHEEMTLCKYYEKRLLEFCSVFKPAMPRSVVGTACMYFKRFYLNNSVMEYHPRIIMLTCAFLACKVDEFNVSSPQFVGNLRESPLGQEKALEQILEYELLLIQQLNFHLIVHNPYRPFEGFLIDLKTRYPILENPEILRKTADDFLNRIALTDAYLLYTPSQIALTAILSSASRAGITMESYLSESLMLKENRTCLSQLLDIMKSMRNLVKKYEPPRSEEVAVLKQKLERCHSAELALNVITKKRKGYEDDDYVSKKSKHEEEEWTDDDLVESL
Sequence of CDK7/CycH/MAT1 (P51948 whole entry partner): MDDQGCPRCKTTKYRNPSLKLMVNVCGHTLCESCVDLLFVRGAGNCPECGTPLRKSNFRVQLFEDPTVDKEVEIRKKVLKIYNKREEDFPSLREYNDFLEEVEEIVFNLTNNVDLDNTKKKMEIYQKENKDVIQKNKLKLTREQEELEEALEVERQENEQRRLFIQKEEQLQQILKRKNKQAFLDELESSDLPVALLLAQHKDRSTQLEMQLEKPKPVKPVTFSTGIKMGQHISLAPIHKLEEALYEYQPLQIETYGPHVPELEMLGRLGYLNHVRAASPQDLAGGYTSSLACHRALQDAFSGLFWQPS

In the case of `C=CC(=O)Nc1ccc(C(=O)N2CC[C@@H](Nc3ncc4ccc(=O)[nH]c4n3)C2)cc1` [Example 42, (R)—N-(4-(3-((7-oxo-7,8-dihydropyrido[2,3-d]pyrimidin-2-yl)amino)pyrrolidine-1-carbonyl)phenyl)acrylamide], the IC50 is 0.1 to 1 µM in test [1], ≤ 0.1 µM in test [2] and 1 to 10 µM in test [3].

With `CCC(=O)Nc1ccc(C(=O)N2CCC[C@@H](Nc3cc4ccccc4cn3)C2)cc1` [Example 18, (R)-N-(4-(3-(isoquinolin-3-ylamino)piperidine-1-carbonyl)phenyl)propionamide], the results for the half-maximal inhibitory concentration (IC50) in test [1], in test [2] and in test [3] were 30 to 100 µM, 10 to 30 µM and 30 to 100 µM, respectively.

For `C=CC(=O)Nc1ccc(C(=O)N2CC[C@@H](Nc3ncc4c(F)cccc4n3)C2)cc1` [Example 91, (R)—N-(4-(3-((5-fluoroquinazolin-2-yl)amino)pyrrolidine-1-carbonyl)phenyl)acrylamide], the IC50 lay in the range of 1 to 10 µM in test [1], 0.1 to 1 µM in test [2] and 1 to 10 µM in test [3].

For the molecule `CCC(=O)Nc1ccc(C(=O)N2CCC[C@@H](Nc3ncc4ccc(=O)n(C(C)C)c4n3)C2)cc1` [Example 24, (R)-N-(4-(3-((8-isopropyl-7-oxo-7,8-dihydropyrido[2,3-d]pyrimidin-2-yl)amino)piperidine-1-carbonyl)phenyl)propionamide], the figures for the IC50 in test [1], in test [2] and in test [3] were 10 to 30 µM, 10 to 30 µM and 30 to 100 µM, respectively.

Consider `C=CC(=O)Nc1ccc(C(=O)N2CCC[C@@H](Nc3ncc4cc(Cl)ccc4n3)C2)cc1` [Example 3, (R)-N-(4-(3-((6-chloroquinazolin-2-yl)amino)piperidine-1-carbonyl)phenyl)acrylamide], for which the half-maximal inhibitory concentration (IC50) was in the range of 30 to 100 µM in test [1], 1 to 10 µM in test [2] and 30 to 100 µM in test [3].

`C=CC(=O)Nc1ccc(C(=O)N2CCC[C@@H](Nc3ncc4ccc(S(C)(=O)=O)cc4n3)C2)cc1` [Example 11, (R)-N-(4-(3-((7-(methylsulfonyl)quinazolin-2-yl)amino)piperidine-1-carbonyl)phenyl)acrylamide]: the values for the half-inhibitory concentration (IC50) in test [1], in test [2] and in test [3] were 10 to 30 µM, 1 to 10 µM and 30 to 100 µM, respectively.

For `CN(C)C/C=C/C(=O)N1CCCc2cc(C(=O)N3CC[C@@H](Nc4ncc5ccccc5n4)C3)ccc21` [Example 89, (R,E)-4-(dimethylamino)-1-(6-(3-(quinazolin-2-ylamino)pyrrolidine-1-carbonyl)-3,4-dihydroquinolin-1(2H)-yl)but-2-en-1-one], the 50% inhibitory concentration (IC50) in test [1] was 1 to 10 µM; in test [2] it was 0.1 to 1 µM; in test [3], 0.1 to 1 µM.

Consider `C=CC(=O)Nc1ccc(C(=O)N2CC[C@@H](Nc3ncc4cc(Cl)ccc4n3)C2)cc1` [Example 25, (R)-N-(4-(3-((6-chloroquinazolin-2-yl)amino)pyrrolidine-1-carbonyl)phenyl)acrylamide], for which the 50% inhibitory concentration (IC50) was 0.1 to 1 µM in test [1], ≤ 0.1 µM in test [2] and 1 to 10 µM in test [3].

`C=CC(=O)Nc1ccc(C(=O)N2CC[C@@H](Nc3ncc4ccncc4n3)C2)cc1` [Example 31, (R)-N-(4-(3-(pyrido[3,4-d]pyrimidin-2-ylamino)pyrrolidine-1-carbonyl)phenyl)acrylamide]: the figures for the IC50 in test [1], in test [2] and in test [3] were 0.1 to 1 µM, ≤ 0.1 µM and 1 to 10 µM, respectively.

Consider `C=CC(=O)Nc1ccc(C(=O)N2CCC[C@@H](Nc3ncc4cc(C)ccc4n3)C2)cc1` [Example 8, (R)-N-(4-(3-((6-methylquinazolin-2-yl)amino)piperidine-1-carbonyl)phenyl)acrylamide], for which the IC50 in test [1] lay in the range of 30 to 100 µM; in test [2], 10 to 30 µM; in test [3] it was 30 to 100 µM.

For `C=CC(=O)Nc1ccc(C(=O)N2CCC[C@@H](Nc3ncc4ccc(C(=O)O)cc4n3)C2)cc1` [Example 14, (R)-2-((1-(4-acrylamidobenzoyl)piperidin-3-yl)amino)quinazoline-7-carboxylic acid], the IC50 in test [1] lay in the range of 1 to 10 µM; in test [2] it was 0.1 to 1 µM; in test [3], 10 to 30 µM.

Regarding `CCC(=O)Nc1ccc(C(=O)N2CCC[C@@H](Nc3ncc4ccc(Cl)cc4n3)C2)cc1` [Example 22, (R)-N-(4-(3-((7-chloroquinazolin-2-yl)amino)piperidine-1-carbonyl)phenyl)propionamide], the IC50 in test [1], in test [2] and in test [3] was 30 to 100 µM throughout.

Regarding `C=CC(=O)Nc1c(C)cc(C(=O)N2CC[C@@H](Nc3ncc4ccccc4n3)C2)cc1F` [Example 75, (R)—N-(2-fluoro-6-methyl-4-(3-(quinazolin-2-ylamino)pyrrolidine-1-carbonyl)phenyl)acrylamide], the IC50 was 10 to 30 µM in test [1], 1 to 10 µM in test [2] and 10 to 30 µM in test [3].

With `CCC(=O)Nc1ccc(C(=O)N2CC[C@@H](Nc3ncc4ccc(=O)[nH]c4n3)C2)cc1` [Example 60, (R)—N-(4-(3-((7-oxo-7,8-dihydropyrido[2,3-d]pyrimidin-2-yl)amino)pyrrolidine-1-carbonyl)phenyl)propionamide], the IC50 in test [1] is 1 to 10 µM; in test [2], ≤ 0.1 µM; in test [3], 1 to 10 µM.

On to `C=CC(=O)Nc1ccc(C(=O)N2CC[C@@H](Nc3ncc4cc(OC)ccc4n3)C2)cc1` [Example 29, (R)-N-(4-(3-((6-methoxyquinazolin-2-yl)amino)pyrrolidine-1-carbonyl)phenyl)acrylamide], for which the IC50 in test [1] is 10 to 30 µM; in test [2], 0.1 to 1 µM; in test [3], 30 to 100 µM.

As for `CN(C)C/C=C/C(=O)N1CCOc2cc(C(=O)N3CC[C@@H](Nc4ncc5ccccc5n4)C3)ccc21` [Example 84, (R,E)-4-(dimethylamino)-1-(7-(3-(quinazolin-2-ylamino)pyrrolidine-1-carbonyl)-2H-benzo[b][1,4]oxazin-4(3H)-yl)but-2-en-1-one], the IC50 was in the range of 1 to 10 µM in test [1], 0.1 to 1 µM in test [2] and 0.1 to 1 µM in test [3].

Turning to `CCC(=O)Nc1ccc(C(=O)N2CC[C@@H](Nc3ncc4ccc(Cl)cc4n3)C2)cc1` [Example 53, (R)—N-(4-(3-((7-chloroquinazolin-2-yl)amino)pyrrolidine-1-carbonyl)phenyl)propionamide], the IC50 lay within 0.1 to 1 µM in test [1], 0.1 to 1 µM in test [2] and 1 to 10 µM in test [3].

On to `C=CC(=O)Nc1ccc(C(=O)N2CC[C@@H](Nc3ncc4cccc(F)c4n3)C2)cc1` [Example 90, (R)—N-(4-(3-((8-fluoroquinazolin-2-yl)amino)pyrrolidine-1-carbonyl)phenyl)acrylamide], for which the values for the half-maximal inhibitory concentration (IC50) in test [1], in test [2] and in test [3] were 1 to 10 µM, 0.1 to 1 µM and 1 to 10 µM, respectively.

For the molecule `C=CC(=O)Nc1ccc(C(=O)N2CCC[C@@H](Nc3ncc4ccc(=O)[nH]c4n3)C2)cc1` [Example 16, (R)-N-(4-(3-((7-oxo-7,8-dihydropyrido[2,3-d]pyrimidin-2-yl)amino)piperidine-1-carbonyl)phenyl)acrylamide], the IC50 fell in the range of 30 to 100 µM in test [1], 10 to 30 µM in test [2] and 30 to 100 µM in test [3].

For `CCC(=O)Nc1ccc(C(=O)N2CC[C@@H](Nc3ncc4cc(Cl)ccc4n3)C2)cc1` [Example 47, (R)—N-(4-(3-((6-chloroquinazolin-2-yl)amino)pyrrolidine-1-carbonyl)phenyl)propionamide], the IC50 was in the range of 1 to 10 µM in test [1], 0.1 to 1 µM in test [2] and 1 to 10 µM in test [3].
